Data on six compounds can be found in patent US20030171617A1, “3,4-Dihydroxymandelic acid alkylamides and use thereof” (priority 2000, published 2003).

Assay [1] can be described thus: DPPH (1,1-diphenyl-2-picrylhydrazyl) test for the removal of free radicals. It is filed as physicochemical. To be noted: c(test compound)/c(DPPH); DPPH 100 μmol/l in methanol; absorption at 515 nm. The procedure:
The activity of the exemplary compounds as in examples 1 to 3 as free-radical scavengers was compared with that of conventional free-radical scavengers. For this purpose, the DPPH (1,1-diphenyl-2-picrylhydrazyl) test for the removal of free radicals was used.
DPPH was dissolved in methanol to a concentration of 100 μmol/l. A series of dilutions of the exemplary compounds, vitamin C, α-tocopherol and dibutylhydroxytoluene were prepared in methanol. Methanol served as the control. 2500 μl of the DPPH solution were mixed with 500 μl of each test solution and the decrease in absorption at 515 nm was read until the decrease was less than 2% per hour. The activity of the test substances as free-radical scavengers was calculated according to the following equation:
Activity as free-radical scavenger (%)=100−(absorption of the test compounds)/(absorption of the control)×100.
The activity as free-radical scavenger (%) in a series of dilutions of test compounds was used to calculate, for each test compound, the effective relative concentration EC50 (based on the starting concentration of DPPH, EC=c (test compound)/c(DPPH)) of a test compound at which 50% of the free radical DPPH had been removed.
On the technique in general: Loss of DPPH colour is used to gauge radical scavenging.

Assay [2] can be described thus: Accelerated autoxidation of lipids by air (Rancimat apparatus), antioxidative index. It is filed as physicochemical. Conditions: AOI=IP(with test solution)/IP(control sample); squalene purified over alumina, stabilized with 1 ppm α-tocopherol; dry air 20 l/h. The procedure:
The activity of the exemplary compounds as in examples 1 to 3 as antioxidants was compared with that of conventional antioxidants. The test system used was the accelerated autoxidation of lipids by air with or without antioxidant using the Rancimat apparatus (Rancimat is a registered trademark of Metrohm AG, Herisau, Switzerland).
The exemplary compounds, vitamin C, α-tocopherol and dibutylhydroxytoluene were dissolved in methanol or acetone, and 100 μl of each test solution were added to a 3 g preprepared oil sample. In a control sample, only solvent was added. A constant stream of dry air (20 l/h) was bubbled through the heated oil sample which contained the test solution, and the volatile oxidation products (predominantly short-chain fatty acids such as formic acid or acetic acid) were collected in a receiver containing water. The conductivity of this aqueous solution was continuously measured and documented. The oxidation of (unsaturated) fats proceeds only very slowly for some time and then suddenly increases. The time to the increase is referred to as the induction period (IP).
The following equation was used to calculate the antioxidative index (AOI):
AOI=IP(with test solution)/IP(control sample).
The results for the experiment at […] in squalene that has been purified over alumina grade N and stabilized with 1 ppm of α-tocopherol are given in table 2: […]

On to `Cc1cc(C(C)(C)C)c(O)c(C(C)(C)C)c1` [Dibutylhydroxytoluene], for which the “EC50 (effective relative concentration at which 50% of the free radical DPPH had been removed)” value in assay [1] is on record as 0.24 mol/mol. In addition, the “AOI in squalene at 80° C. with 0.005% of test substance” value (from here on “AOI … with 0.005% of test substance”) in assay [2] is reported as 38.
The corresponding values for `CCCCC(CC)CNC(=O)C(O)c1ccc(O)c(O)c1` (stereo not drawn) [Example 1, 2-(3,4-Dihydroxyphenyl)-N-(2-ethylhexyl)-2-hydroxyacetamide] are 0.12 mol/mol and 69.
The corresponding values for `O=C(NC1CCCCC1)C(O)c1ccc(O)c(O)c1` (stereo not drawn) [Example 2, N-Cyclohexyl-2-(3,4-dihydroxyphenyl)-2-hydroxyacetamide] are 0.11 mol/mol and 43.
In the case of `CCCCCCNC(=O)C(O)c1ccc(O)c(O)c1` (stereo not drawn) [Example 3, 2-(3,4-Dihydroxyphenyl)-N-n-hexyl-2-hydroxyacetamide], the “EC50 (effective relative concentration at which 50% of the free radical DPPH had been removed)” value in assay [1] came to 0.12 mol/mol. For the same compound, the “AOI … with 0.005% of test substance” value in assay [2] was 55.
For `O=C1O[C@H]([C@@H](O)CO)C(O)=C1O` [Vitamin C] the same measures were 0.27 mol/mol and 0.7.
For the compound `Cc1c(C)c2c(c(C)c1O)CC[C@@](C)(CCC[C@H](C)CCC[C@H](C)CCCC(C)C)O2` [α-Tocopherol], in assay [1], the “EC50 (effective relative concentration at which 50% of the free radical DPPH had been removed)” value stood at 0.25 mol/mol. The “AOI … with 0.005% of test substance” value in assay [2] was 39.
